# In patent US11234437B2 (priority 2017, dated 2022):
# Tests used:
# [1] = test system: Magnaporthe grisea (Pyricularia oryzae); experiment: microbe, parasite or virus in culture; format: cell-based; conditions: read-out: control of Magnaporthe grisea
# Sclerotinia sclerotiorum = Sclerotinia sclerotiorum / liquid culture (cottony rot); format: cell-based; conditions: compared to untreated control
# Method: Sclerotinia sclerotiorum/Liquid Culture (Cottony Rot)
# Mycelia fragments of a newly grown liquid culture of the fungus are directly mixed into nutrient broth (Vogels broth). After placing a (DMSO) solution of test compound into a microtiter plate (96-well format) the nutrient broth containing the fungal material is added. The test plates are incubated at 24° C. and the inhibition of growth is determined photometrically 3-4 days after application.
# Fusarium culmorum [2] = experiment: whole plant or invertebrate; format: in vivo; conditions: in Triticum aestivum, read-out: control of Fusarium culmorum
# [3] = test system: Gibberella zeae (Fusarium graminearum); experiment: whole plant or invertebrate; format: in vivo; conditions: in Triticum aestivum, read-out: control of Gibberella zeae
# Fusarium culmorum [4] = experiment: microbe, parasite or virus in culture; format: cell-based; conditions: read-out: control of Fusarium culmorum
# [5] = test system: Monographella nivalis (Microdochium nivale); experiment: Monographella nivalis (Microdochium nivale) / liquid culture (foot rot cereals); format: cell-based; conditions: compared to untreated control
# Method: Monographella nivalis (Microdochium nivale)/Liquid Culture (Foot Rot Cereals)
# (§1) Conidia of the fungus from cryogenic storage are directly mixed into nutrient broth (PDB potato dextrose broth). After placing a (DMSO) solution of test compound into a microtiter plate (96-well format), the nutrient broth containing the fungal spores is added. The test plates are incubated at 24° C. and the inhibition of growth is determined photometrically 4-5 days after application.
# [6] = test system: Botryotinia fuckeliana (Botrytis cinerea); experiment: Botryotinia fuckeliana (Botrytis cinerea) / liquid culture (gray mould); format: cell-based; conditions: compared to untreated control
# Method: Botryotinia fuckeliana (Botrytis cinerea)/Liquid Culture (Gray Mould)
# as §1, with “(Vogels” for “(PDB potato dextrose”, “3-4” for “4-5”
# [7] = test system: Glomerella lagenarium (Colletotrichum lagenarium); experiment: Glomerella lagenarium (Colletotrichum lagenarium) / liquid culture (anthracnose); format: cell-based; conditions: Colletotrichum orbiculare, compared to untreated control
# Method: as §1, with “measured” for “determined”, “3-4” for “4-5”
Structure (SMILES),inhibition of growth at 20 ppm [1],inhibition of growth at 20 ppm (Sclerotinia sclerotiorum),pest or weed control at 200 ppm (Fusarium culmorum [2]),pest or weed control at 200 ppm [3],inhibition of growth at 200 ppm (Fusarium culmorum [4]),inhibition of growth at 20 ppm [5],inhibition of growth at 200 ppm [6],inhibition of growth at 200 ppm [7],melting point
"C[C@](Cc1ccccc1)(CC(F)(F)F)NC(=O)c1cnc2ccccc2c1 [Compound F-34, N-[(1S)-1-benzyl-3,3,3-trifluoro-1-methyl-propyl]quinoline-3-carboxamide]",≥ 80%,≥ 80%,≥ 80%,≥ 80%,≥ 80%,≥ 80%,≥ 80%,≥ 80%,
"CC(Cc1ccccc1)(CC(F)(F)F)NC(=O)c1cnc2ccccc2c1 (stereo not shown) [X.020, N-(1-benzyl-3,3,3-trifluoro-1-methyl-propyl)quinoline-3-carboxamide]",≥ 80%,≥ 80%,≥ 80%,≥ 80%,≥ 80%,,≥ 80%,≥ 80%,130 to 132 °C
C=C(Cl)C[C@](C)(Cc1ccccc1)NC(=O)c1cnc2c(F)cccc2c1 [Compound F-35],≥ 80%,≥ 80%,≥ 80%,≥ 80%,≥ 80%,≥ 80%,≥ 80%,≥ 80%,
"CC(C)C[C@](C)(Cc1cccc(F)c1)NC(=O)c1cnc2c(F)cccc2c1 [Compound F-29, 8-fluoro-N-[(1R)-1-[(3-fluorophenyl)methyl]-1,3-dimethyl-butyl]quinoline-3-carboxamide]",≥ 80%,≥ 80%,≥ 80%,≥ 80%,≥ 80%,,≥ 80%,≥ 80%,
C=C(Cl)CC(C)(Cc1ccccc1)NC(=O)c1cnc2c(F)cccc2c1 (stereo not shown) [X.001],≥ 80%,≥ 80%,≥ 80%,≥ 80%,≥ 80%,≥ 80%,≥ 80%,≥ 80%,56 to 59 °C
"C[C@](Cc1ccccc1)(CC1(F)CC1)NC(=O)c1cnc2c(F)cccc2c1 [Compound F-24, N-[(1S)-1-benzyl-2-(1-fluorocyclopropyl)-1-methyl-ethyl]-8-fluoro-quinoline-3-carboxamide]",≥ 80%,≥ 80%,≥ 80%,≥ 80%,≥ 80%,≥ 80%,≥ 80%,≥ 80%,
"C[C@](Cc1cccc(F)c1)(CC(F)(F)F)NC(=O)c1cnc2c(F)cccc2c1 [Compound F-28, 8-fluoro-N-[(1S)-3,3,3-trifluoro-1-[(3-fluorophenyl)methyl]-1-methyl-propyl]quinoline-3-carboxamide]",≥ 80%,≥ 80%,≥ 80%,≥ 80%,≥ 80%,,≥ 80%,≥ 80%,
